Calls of active or inactive are those of the source.
Key:
[1] = target: T1, Polyadenylate-binding protein 1 (Homo sapiens, UniProt P11940); assay: MLLE domain peptide-binding blockers, IC50 – biochemical, fluorescence polarization, FITC-PAM2 peptide, dose response (AID 602259); format: functional; conditions: read-out: IC50_Mean
[2] = target: T1, Polyadenylate-binding protein 1; assay: MLLE binding blockers, Cy5 peptide tracer – biochemical, fluorescence polarization, Cy5-PAM2 peptide, secondary, miRNA deadenylation inhibitor project, dose response (AID 602260); format: functional; conditions: read-out: IC50_Mean
[3] = target: T2, Cytochrome P450 1A2 (Homo sapiens, UniProt P05177);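 note: PubChem cytochrome P450 panel assay, CYP1A2 panel member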
T2 sequence (P05177 whole entry): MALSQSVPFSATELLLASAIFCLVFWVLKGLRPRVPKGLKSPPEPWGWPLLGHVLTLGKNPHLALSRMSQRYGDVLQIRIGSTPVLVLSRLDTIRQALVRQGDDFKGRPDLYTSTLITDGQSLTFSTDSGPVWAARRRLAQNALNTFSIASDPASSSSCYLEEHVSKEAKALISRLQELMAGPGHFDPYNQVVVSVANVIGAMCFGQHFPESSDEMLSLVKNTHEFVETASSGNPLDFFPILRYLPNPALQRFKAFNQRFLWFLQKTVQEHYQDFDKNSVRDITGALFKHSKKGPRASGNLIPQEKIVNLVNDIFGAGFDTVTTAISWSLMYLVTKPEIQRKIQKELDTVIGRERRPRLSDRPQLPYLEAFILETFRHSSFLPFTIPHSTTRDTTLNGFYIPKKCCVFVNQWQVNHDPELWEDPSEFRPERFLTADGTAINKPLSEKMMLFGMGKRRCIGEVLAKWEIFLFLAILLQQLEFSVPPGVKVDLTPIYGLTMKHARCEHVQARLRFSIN

[4] = target: Cytochrome P450 2C19 (Homo sapiens, UniProt P33261); assay: Cytochrome panel assay with activity outcomes. Panel member name: p450-cyp2c19 Compounds with AC50 equal or less than 10 uM are considered active; format: functional
Sequence of Cytochrome P450 2C19 (P33261 whole entry): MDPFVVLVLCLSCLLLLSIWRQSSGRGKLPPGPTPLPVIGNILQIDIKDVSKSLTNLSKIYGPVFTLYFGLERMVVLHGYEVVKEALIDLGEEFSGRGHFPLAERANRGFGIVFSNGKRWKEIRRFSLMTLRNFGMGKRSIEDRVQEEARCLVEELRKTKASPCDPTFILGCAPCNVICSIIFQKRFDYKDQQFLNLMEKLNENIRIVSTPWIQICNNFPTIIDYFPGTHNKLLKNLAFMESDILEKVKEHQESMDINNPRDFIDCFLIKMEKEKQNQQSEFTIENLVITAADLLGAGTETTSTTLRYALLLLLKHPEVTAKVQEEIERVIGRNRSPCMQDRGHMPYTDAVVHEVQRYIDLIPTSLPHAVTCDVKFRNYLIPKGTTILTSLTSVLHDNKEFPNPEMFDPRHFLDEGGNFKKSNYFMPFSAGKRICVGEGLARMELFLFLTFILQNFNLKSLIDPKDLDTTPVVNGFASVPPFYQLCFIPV

[5] = target: T3, Corticotropin-releasing factor receptor 2/Corticotropin-releasing factor-binding protein (Homo sapiens, UniProt P24387+Q13324); assay: Dose Response confirmation of uHTS hits for small molecule antagonists of the CRF-binding protein and CRF-R2 receptor complex.; format: functional; conditions: read-out: IC50_Mean
T3 sequence (Q13324 whole entry): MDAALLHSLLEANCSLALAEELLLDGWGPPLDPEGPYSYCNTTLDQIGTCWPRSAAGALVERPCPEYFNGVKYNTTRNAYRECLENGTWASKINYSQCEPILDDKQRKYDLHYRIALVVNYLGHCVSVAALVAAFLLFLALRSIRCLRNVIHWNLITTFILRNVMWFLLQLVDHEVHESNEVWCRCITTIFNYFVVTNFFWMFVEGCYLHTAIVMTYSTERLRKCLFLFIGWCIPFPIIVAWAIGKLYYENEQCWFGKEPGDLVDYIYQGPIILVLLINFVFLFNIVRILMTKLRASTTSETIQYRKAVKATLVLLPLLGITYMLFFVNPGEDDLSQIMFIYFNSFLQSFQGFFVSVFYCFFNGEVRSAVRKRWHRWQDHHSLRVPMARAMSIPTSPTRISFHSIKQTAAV
T3 sequence (P24387 whole entry): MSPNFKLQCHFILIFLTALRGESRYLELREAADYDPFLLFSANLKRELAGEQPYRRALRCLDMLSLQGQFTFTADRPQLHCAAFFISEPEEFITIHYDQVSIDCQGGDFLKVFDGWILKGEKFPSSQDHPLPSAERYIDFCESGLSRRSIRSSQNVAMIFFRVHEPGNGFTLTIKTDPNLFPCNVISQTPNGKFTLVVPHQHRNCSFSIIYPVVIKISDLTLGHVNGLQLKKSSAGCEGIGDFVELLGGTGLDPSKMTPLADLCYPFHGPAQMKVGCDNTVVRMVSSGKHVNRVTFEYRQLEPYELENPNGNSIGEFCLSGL

[6] = target: T3, Corticotropin-releasing factor receptor 2/Corticotropin-releasing factor-binding protein; assay: activators of CRF receptor 2 with binding protein – uHTS hits, confirmation (AID 602473); format: functional; conditions: read-out: EC50_Mean
[7] = target: Cytochrome P450 2C9 (Homo sapiens, UniProt P11712)
Sequence of Cytochrome P450 2C9 (P11712 whole entry): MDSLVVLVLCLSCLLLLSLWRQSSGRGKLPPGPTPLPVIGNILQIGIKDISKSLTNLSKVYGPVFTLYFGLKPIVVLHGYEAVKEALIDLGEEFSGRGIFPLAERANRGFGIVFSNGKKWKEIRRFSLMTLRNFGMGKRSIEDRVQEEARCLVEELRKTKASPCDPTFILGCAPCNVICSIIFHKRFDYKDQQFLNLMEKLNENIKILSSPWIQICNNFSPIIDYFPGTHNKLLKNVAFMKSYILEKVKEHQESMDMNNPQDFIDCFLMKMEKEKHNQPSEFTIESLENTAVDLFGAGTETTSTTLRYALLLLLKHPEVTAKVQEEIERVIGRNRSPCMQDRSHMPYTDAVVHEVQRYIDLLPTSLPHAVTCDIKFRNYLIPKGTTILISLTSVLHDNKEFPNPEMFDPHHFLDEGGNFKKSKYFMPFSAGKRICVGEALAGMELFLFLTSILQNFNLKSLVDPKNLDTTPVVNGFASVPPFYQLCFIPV

[8] = system: Vero; assay: cells; format: functional; conditions: Chlorocebus sabaeus
[9] = system: INS1; assay: INS-1E survival protection against cytokine death – cell-based, luminescence, retest, dose response (AID 449756); format: functional; conditions: Rattus norvegicus;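 note: cell death triggered by IL-1 beta plus TNF-alpha plus IFN-gamma mixture; protective hits raise ATP signal compared with cytokine alone wells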
[10] = viability of PTEN-deleted HCT116 cells – cell-based, HCT116 PTEN knockout, dose response (AID 1047); format: functional;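 note: HCT116 colon tumor cells with PTEN knocked out; cells exposed to compound for 60 hours before readout; potency for loss of cell viability measured by luminescence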
[11] = viability of HCT116 lacking mutant beta-catenin – cell-based, human colon tumor, dose response (AID 1045); format: functional;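 note: HCT116 colon tumor cells with beta catenin knocked out; cells exposed to compound for 60 hours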
[12] = reduction of Shn3 3'UTR-driven luciferase in osteoblasts – cell-based, Clone20 osteoblasts, firefly luciferase, cherry-picked, dose response (AID 624132); format: functional;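 note: firefly luciferase luminescence from reporter carrying the Shn3 3'UTR in osteoblasts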
[13] = non-specific 3'UTR reporter inhibition in Clone20-Shn3RL – cell-based, Renilla luciferase, cherry-picked, counter-screen for Shn3 inhibitor project, dose response (AID 624133); format: functional
[14] = Luminescence Cell-Based Dose Confirmation HTS to Identify Inhibitors of Platelet Dense Granule Release. [Related pubchem assays: 1663 (Primary HTS), 1678 (Summary of Project)]; format: functional
[15] = target: Luciferin 4-monooxygenase (Photinus pyralis, UniProt P08659); assay: inhibition of purified Photinus pyralis luciferase – biochemical, luminescence, dose response (AID 1891)
Sequence of Luciferin 4-monooxygenase (P08659 whole entry): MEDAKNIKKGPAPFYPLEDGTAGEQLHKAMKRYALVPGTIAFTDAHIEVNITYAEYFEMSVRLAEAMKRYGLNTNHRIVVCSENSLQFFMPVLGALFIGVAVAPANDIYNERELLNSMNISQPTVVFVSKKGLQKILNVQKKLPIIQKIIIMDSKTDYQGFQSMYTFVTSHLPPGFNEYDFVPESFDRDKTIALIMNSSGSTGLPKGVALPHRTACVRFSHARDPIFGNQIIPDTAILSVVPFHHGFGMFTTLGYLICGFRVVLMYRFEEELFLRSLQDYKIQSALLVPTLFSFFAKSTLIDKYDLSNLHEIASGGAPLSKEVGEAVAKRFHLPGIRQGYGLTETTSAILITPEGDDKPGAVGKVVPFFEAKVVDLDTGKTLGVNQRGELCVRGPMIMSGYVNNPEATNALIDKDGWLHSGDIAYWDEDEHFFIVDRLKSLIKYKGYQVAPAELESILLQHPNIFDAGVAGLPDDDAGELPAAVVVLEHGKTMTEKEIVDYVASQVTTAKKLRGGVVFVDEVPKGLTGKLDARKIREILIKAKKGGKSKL

[16] = Luminescence Cell-Based Dose Response HTS to Identify Inhibitors of 5'UTR Stem-Loop Driven Prion Protein mRNA Translation in H4 Neuroglioblastoma Cells. [Related pubchem assays: 1827 (Project Summary), 1813 (Primary HTS)]; format: functional
[17] = alpha-synuclein stem-loop luciferase translation blockers – H4 neuroglioma cells, luminescence, confirmation (AID 1988); format: functional, cell-based
[18] = luciferase reporter signal suppression in cells – H4 neuroglioma cells, luminescence, dose response (AID 1990); format: functional, cell-based
[19] = target: Cytochrome P450 2D6 (Homo sapiens, UniProt P10635);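 note: CYP2D6 member of a cytochrome P450 panel assay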
Sequence of Cytochrome P450 2D6 (P10635 whole entry): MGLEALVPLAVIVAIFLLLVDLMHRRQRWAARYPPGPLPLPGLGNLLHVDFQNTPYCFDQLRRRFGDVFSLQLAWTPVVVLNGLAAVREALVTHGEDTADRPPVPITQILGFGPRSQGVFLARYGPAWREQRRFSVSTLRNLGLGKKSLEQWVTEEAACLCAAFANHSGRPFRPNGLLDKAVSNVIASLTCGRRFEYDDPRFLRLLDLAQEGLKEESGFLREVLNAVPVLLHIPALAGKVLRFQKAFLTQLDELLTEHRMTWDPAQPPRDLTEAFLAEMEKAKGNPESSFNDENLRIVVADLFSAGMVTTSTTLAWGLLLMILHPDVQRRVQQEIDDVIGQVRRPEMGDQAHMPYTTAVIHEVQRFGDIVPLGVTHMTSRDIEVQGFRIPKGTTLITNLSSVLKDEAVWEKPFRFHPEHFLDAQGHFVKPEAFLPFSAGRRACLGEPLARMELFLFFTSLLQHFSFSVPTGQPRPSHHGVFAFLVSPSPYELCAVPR

T1 sequence (P11940 whole entry, the tested form may be a part): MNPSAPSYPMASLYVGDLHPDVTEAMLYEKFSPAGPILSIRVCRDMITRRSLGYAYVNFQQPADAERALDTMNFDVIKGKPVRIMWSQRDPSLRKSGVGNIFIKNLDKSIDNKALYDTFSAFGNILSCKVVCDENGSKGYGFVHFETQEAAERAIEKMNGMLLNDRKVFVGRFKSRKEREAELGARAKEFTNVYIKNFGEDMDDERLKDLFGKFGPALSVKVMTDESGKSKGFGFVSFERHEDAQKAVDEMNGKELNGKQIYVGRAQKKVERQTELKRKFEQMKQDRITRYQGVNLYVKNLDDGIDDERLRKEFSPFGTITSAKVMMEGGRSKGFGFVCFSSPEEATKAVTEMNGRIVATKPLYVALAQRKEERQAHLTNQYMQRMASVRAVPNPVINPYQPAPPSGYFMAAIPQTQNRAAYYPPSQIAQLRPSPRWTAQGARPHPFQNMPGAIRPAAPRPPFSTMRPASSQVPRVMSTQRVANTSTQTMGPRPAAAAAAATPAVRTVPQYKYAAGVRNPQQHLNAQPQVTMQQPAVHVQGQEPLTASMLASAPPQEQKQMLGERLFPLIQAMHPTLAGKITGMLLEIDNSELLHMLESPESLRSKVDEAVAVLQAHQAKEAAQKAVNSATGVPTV

Structure (SMILES): Cc1cscc(C)c1=S
- IC50 [1]: > 66 µM (inactive)
- IC50 [2]: > 66 µM (inactive)

Structure (SMILES): Cc1nnc(C)n1/N=C/c1cccs1
- AC50 [3]: 17.8 µM (inconclusive)
- AC50 [4]: inconclusive
- IC50 [5]: > 47.1 µM (inactive)
- EC50 [6]: > 53 µM (inactive)

Structure (SMILES): CCCc1nnc(NC(=O)CN2C(=O)C3C4C=CC(C4)C3C2=O)s1 (configuration not stated)
- AC50 ([4]; read-out: AC50): 17.8 µM (inconclusive)
- AC50 [7]: inconclusive

Structure (SMILES): O=C1c2cccc3c(Cl)ccc(c23)C(=O)N1O
- AC50 [7]: inconclusive

Structure (SMILES): CCc1c(C)sc(NC(=O)c2ccco2)c1C(=O)N1CCOCC1
- IC50 [1]: > 66 µM (inactive)
- IC50 [2]: > 66 µM (inactive)

Structure (SMILES): Cn1ncc2c(Nc3ccc(-c4ccccc4)cc3)ncnc21
- CC50 [8]: > 25 µM (active)

Structure (SMILES): COc1ccccc1C1SCCN1S(=O)(=O)c1ccccc1 (configuration not stated)
- IC50 [5]: > 47.1 µM (inactive)
- EC50 [6]: > 53 µM (inactive)

Structure (SMILES): O=C(c1cccc(Cl)c1)c1nn(-c2ccccc2)c(=O)cc1C(F)(F)F
- AC50 [9]: 23.8 µM (active)
- EC50 [10]: 10.6 µM (active)
- EC50 [11]: 12.3 µM (active)

Structure (SMILES): CCCc1ccc(C(=O)NNc2cc(Cl)ccc2Cl)cc1
- AC50 [12]: 2.59 µM (active)
- AC50 [13]: 10.1 µM (active)

Structure (SMILES): COCCCNC(=O)Cn1nc(-c2ccccc2OC)ccc1=O
- AC50 [4]: inconclusive
- EC50 [14]: > 112 µM (not active)
- AC50 [7]: inconclusive
- EC50 [15]: > 112 µM (not active)

Structure (SMILES): COCCn1c(SCC(=O)Nc2cccc(C(=O)OC)c2)nc2ccccc2c1=O
- EC50 [16]: > 120 µM (not active)
- IC50 [5]: > 47.1 µM (inactive)
- EC50 [6]: > 53 µM (inactive)
- EC50 [17]: 15.2 µM (active)
- EC50 [18]: 36.7 µM (active)

Structure (SMILES): COc1ccccc1COC(=O)Nc1c(C)nn(C)c1Cl
- AC50 [7]: inconclusive

Structure (SMILES): C/C(C[n+]1ccccc1)=N\N=C(N)N
- AC50 [7]: inconclusive

Structure (SMILES): COc1cc(C(=O)NCc2cccc3ccccc23)cc(Cl)c1OC
- AC50 [7]: inconclusive
- AC50 [19]: 15.8 µM (inconclusive)
